ChEMBL document CHEMBL5291721, “A preclinical secondary pharmacology resource illuminates target-adverse drug reaction associations of marketed drugs” (Nat Commun, 2023)

Assays:
[1] = target: T1, Estrogen receptor (Homo sapiens, UniProt P03372)
T1 sequence (P03372 whole entry): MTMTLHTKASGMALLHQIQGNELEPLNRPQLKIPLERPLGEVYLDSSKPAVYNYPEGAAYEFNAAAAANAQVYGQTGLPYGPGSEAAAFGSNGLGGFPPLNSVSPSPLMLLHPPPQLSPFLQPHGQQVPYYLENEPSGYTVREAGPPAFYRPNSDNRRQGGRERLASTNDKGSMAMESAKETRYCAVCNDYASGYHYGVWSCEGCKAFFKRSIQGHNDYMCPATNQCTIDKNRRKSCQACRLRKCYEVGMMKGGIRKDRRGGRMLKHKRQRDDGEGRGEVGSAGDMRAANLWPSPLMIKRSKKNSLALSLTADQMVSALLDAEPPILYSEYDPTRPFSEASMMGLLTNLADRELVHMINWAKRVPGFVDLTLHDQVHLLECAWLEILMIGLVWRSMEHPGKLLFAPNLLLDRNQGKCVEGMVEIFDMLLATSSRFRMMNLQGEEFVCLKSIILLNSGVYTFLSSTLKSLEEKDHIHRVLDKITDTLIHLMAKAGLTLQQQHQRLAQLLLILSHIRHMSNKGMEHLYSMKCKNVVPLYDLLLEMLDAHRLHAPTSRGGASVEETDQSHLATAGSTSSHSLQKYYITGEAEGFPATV

[2] = target: T2, Progesterone receptor (Homo sapiens, UniProt P06401)
T2 sequence (P06401 whole entry): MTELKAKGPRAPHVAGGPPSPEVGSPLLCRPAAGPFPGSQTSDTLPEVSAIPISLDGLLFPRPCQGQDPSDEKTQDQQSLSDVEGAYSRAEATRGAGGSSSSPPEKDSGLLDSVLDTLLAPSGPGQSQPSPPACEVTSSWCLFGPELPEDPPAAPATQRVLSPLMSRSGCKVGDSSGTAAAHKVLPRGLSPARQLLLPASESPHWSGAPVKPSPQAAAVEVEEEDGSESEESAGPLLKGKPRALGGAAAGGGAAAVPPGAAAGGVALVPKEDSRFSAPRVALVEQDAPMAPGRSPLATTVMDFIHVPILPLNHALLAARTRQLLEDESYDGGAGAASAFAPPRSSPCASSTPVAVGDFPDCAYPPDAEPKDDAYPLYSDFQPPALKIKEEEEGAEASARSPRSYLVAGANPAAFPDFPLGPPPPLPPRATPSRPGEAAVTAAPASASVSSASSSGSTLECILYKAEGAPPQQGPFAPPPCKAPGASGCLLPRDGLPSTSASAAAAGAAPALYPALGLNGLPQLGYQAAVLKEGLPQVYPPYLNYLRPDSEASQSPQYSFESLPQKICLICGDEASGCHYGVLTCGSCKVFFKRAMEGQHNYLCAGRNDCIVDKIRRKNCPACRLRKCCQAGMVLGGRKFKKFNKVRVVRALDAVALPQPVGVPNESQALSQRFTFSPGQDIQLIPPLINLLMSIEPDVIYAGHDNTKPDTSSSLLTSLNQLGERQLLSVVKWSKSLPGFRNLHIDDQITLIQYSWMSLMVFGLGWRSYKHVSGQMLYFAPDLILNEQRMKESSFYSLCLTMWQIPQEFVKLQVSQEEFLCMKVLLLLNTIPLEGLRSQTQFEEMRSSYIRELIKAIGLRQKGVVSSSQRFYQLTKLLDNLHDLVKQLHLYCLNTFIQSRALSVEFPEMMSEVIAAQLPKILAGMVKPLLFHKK

[3] = target: T3, B1 bradykinin receptor (Homo sapiens, UniProt P46663)
T3 sequence (P46663 whole entry): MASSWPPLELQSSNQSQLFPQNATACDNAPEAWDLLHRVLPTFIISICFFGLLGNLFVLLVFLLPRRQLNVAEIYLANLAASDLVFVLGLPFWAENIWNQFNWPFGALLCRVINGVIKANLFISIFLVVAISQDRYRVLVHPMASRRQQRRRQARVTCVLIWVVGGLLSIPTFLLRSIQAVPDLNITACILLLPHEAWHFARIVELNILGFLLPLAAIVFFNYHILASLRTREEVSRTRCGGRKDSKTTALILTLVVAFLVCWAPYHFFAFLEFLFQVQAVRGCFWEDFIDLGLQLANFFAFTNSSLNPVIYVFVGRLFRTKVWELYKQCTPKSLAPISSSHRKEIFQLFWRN

[4] = target: T4, Endothelin receptor type B (Homo sapiens, UniProt P24530)
T4 sequence (P24530 whole entry): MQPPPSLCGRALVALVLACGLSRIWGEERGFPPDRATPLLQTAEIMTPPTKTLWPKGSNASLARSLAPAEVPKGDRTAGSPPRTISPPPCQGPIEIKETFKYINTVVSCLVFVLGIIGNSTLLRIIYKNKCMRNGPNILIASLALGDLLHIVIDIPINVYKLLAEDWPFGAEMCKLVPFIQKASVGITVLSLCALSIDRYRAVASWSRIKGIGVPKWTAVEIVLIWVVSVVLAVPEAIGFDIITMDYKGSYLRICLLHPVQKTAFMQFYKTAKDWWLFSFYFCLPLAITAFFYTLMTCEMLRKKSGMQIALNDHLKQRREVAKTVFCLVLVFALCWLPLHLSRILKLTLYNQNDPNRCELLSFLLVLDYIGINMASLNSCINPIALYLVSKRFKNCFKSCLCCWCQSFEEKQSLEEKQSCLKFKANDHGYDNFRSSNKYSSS

[5] = target: T5, Muscarinic acetylcholine receptor M1 (Homo sapiens, UniProt P11229); type: functional, cell-based
T5 sequence (P11229 whole entry): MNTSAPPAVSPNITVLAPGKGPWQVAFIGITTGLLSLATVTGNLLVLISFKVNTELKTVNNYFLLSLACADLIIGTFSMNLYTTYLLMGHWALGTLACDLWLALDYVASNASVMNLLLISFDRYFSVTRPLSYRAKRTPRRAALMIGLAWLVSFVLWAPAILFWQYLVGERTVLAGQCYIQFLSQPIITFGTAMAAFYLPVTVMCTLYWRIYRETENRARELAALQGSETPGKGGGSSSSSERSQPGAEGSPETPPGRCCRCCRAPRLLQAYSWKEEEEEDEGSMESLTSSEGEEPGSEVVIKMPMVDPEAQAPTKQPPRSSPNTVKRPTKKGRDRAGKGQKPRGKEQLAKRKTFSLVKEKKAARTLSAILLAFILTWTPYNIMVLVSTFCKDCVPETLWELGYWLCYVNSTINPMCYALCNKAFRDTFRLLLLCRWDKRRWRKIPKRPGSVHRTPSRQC

[6] = target: Gamma-aminobutyric acid receptor subunit alpha-1 (Rattus norvegicus, UniProt P62813)
Note: assay procedure not described here.

Chain of Gamma-aminobutyric acid receptor subunit alpha-1 (P62813 whole entry): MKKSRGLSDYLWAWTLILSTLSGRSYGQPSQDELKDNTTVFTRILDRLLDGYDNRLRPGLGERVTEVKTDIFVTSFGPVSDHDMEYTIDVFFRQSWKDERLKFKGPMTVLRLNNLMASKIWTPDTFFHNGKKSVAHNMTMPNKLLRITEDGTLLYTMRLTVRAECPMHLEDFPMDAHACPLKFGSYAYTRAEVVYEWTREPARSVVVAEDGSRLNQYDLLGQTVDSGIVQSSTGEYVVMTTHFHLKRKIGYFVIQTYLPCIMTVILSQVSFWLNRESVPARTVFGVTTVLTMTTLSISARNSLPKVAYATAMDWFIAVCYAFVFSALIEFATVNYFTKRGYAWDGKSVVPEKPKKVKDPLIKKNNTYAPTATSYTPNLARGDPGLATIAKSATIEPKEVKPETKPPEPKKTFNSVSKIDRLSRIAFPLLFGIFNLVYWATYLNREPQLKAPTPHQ

O=C(O)CCCCC1CCSS1 (stereo not drawn) [LIPOIC ACID, ALPHA]
AC50 [1]: > 10 µM | AC50 [2]: > 30 µM

Cn1c(=O)cc(N2CCC[C@@H](N)C2)n(Cc2ccccc2C#N)c1=O [ALOGLIPTIN]
AC50 [3]: > 30 µM | AC50 [4]: > 30 µM

CC(=O)OCC(=O)[C@@]1(O)[C@H](C)C[C@H]2[C@@H]3CCC4=CC(=O)C=C[C@]4(C)[C@@]3(F)[C@@H](O)C[C@@]21C [DEXAMETHASONE ACETATE]
AC50 [3]: > 30 µM | AC50 [4]: > 30 µM

Nc1c2ccccc2nc2ccccc12 [AMINACRINE]
AC50 [1]: > 30 µM | AC50 [5]: 20.4 µM | AC50 [6]: > 30 µM | AC50 [2]: > 30 µM
